In US12447149B2, “Formulations of vimseltinib” (Deciphera Pharmaceuticals, LLC, priority 2023, dated 2025):

Key:
Type in all cases: physicochemical
[1] = Static storage stability of crystalline dihydrate and anhydrous forms (XRPD, DSC, KF weekly for four weeks)
Description: The stability of crystalline dihydrate and anhydrous forms of the compound represented by Formula (I) at varying relative humidity (RH) and temperature was investigated.
For example, the stability of crystalline dihydrate and anhydrous forms of the compound represented by Formula (I), as prepared according to Example 1 and Example 2, respectively, was studied under other conditions by placing aliquots of each form in static storage at conditions of 40° C./75% RH, 25° C./97% RH, 40° C./0% RH and 25° C./0% RH and analyzing the aliquots once weekly for four weeks using XRPD, DSC, and KF.

[2] = Particle size distribution (PSD) of crystalline dihydrate form and seeds, DMAC-water crystallization
[3] = Particle size analysis by laser diffraction (Malvern Mastersizer 3000, wet dispersion); conditions: volume distribution, listed as 1
Description: Particle size analysis of dihydrate vimseltinib drug substance samples was determined by laser diffraction using a Malvern Mastersizer 3000 instrument in a wet dispersion mode.
Prior to analysis, dihydrate drug substance samples were rotated and inverted in the sample container at least 10 times to ensure homogeneity. Between 20 and 25 mg of sample was weighed into a Malvern Glass tube. 20 mL of the Dispersant Solution (0.1% Span 85 in Isoparaffin G) was added and vortexed until a homogeneous suspension was obtained (˜30 s). The sample was then placed in a Vibra-Cell ultrasonic processor. The amplitude was set to the target of 30% (4 Watts) using an external probe (Vibra-Cell) during 90 sec.
After background measurement, the sample dispersion was slowly added to the dispersion unit of the instrument to achieve an obscuration level target of 5%. The sample was stirred at 3250 rpm for at least 1 minute to ensure dispersion and stabilization of the sample. After stabilization, the measurement was started and performed using a Malvern Mastersizer 3000 according to the method conditions provided in Table 17.

[4] = crystallization outputs using seeds of a smaller size (about 1/3/5 μm)
[5] = crystallized with milled seeds of about 3/6/12 μm, seeding about 65° C., about 3% seeds, laboratory and production scale
[6] = jet-milled seed batch, crystallization 1 at 60° C. with 7% seeds, crystallization 2 at 64° C. with 5% seeds
[7] = seeds used in DMAC-water crystallization, listed as seeds of a smaller size
[8] = milled seeds of crystalline dihydrate form used in DMAC-water crystallization, listed as 1
[9] = storage 25° C./0% RH, Week 4, listed as crystalline dihydrate form (having average crystal sizes of about 1 mm)
[10] = storage 40° C./0% RH, Week 4, listed as crystalline dihydrate form (having average crystal sizes of about 1 mm)

SMILES: Cc1nc(-c2cnc(NC(C)C)n(C)c2=O)ccc1Oc1ccnc(-c2cnn(C)c2)c1.O.O [Dihydrate form of the compound represented by Formula (I) (h] [listing 1 of 2 here]
- KF (%) ([1]; storage 25° C./0% RH, Week 1): 7.5%
- KF (%) ([1]; storage 25° C./0% RH, Week 2): 7.7%
- KF (%) ([1]; storage 25° C./0% RH, Week 3): 8.1%
- KF (%) ([1]; storage 25° C./0% RH, Week 4): 7.9%
- XRPD ([1]; storage 25° C./0% RH, Week 4): Dihydrate
- KF (%) ([1]; storage 25° C./97% RH, Week 1): 7.6%
- KF (%) ([1]; storage 25° C./97% RH, Week 2): 7.5%
- KF (%) ([1]; storage 25° C./97% RH, Week 3): 7.9%
- KF (%) ([1]; storage 25° C./97% RH, Week 4): 7.9%
- KF (%) ([1]; storage 40° C./0% RH, Week 1): 7.5%
- XRPD ([1]; storage 40° C./0% RH, Week 1): Pattern 4
- XRPD ([1]; storage 40° C./0% RH, Week 1, listed as crystalline dihydrate form (having crystal sizes in the range of about 10-50 μm)): Pattern 4
- KF (%) ([1]; storage 40° C./0% RH, Week 2): 7.4%
- XRPD ([1]; storage 40° C./0% RH, Week 2): Pattern 4
- XRPD ([1]; storage 40° C./0% RH, Week 2, listed as crystalline dihydrate form (having crystal sizes in the range of about 10-50 μm)): Pattern 4
- KF (%) ([1]; storage 40° C./0% RH, Week 3): 7.0%
- XRPD ([1]; storage 40° C./0% RH, Week 3, listed as crystalline dihydrate form (having crystal sizes in the range of about 10-50 μm)): Pattern 4 and peaks at 9.9° and 10.6°
- KF (%) ([1]; storage 40° C./0% RH, Week 4): 3.4%
- XRPD ([1]; storage 40° C./0% RH, Week 4, listed as crystalline dihydrate form (having crystal sizes in the range of about 10-50 μm)): Pattern 4 and peaks at 9.9° and 10.6°
- KF (%) ([1]; storage 40° C./75% RH, Week 1): 7.5%
- KF (%) ([1]; storage 40° C./75% RH, Week 2): 7.9%
- KF (%) ([1]; storage 40° C./75% RH, Week 3): 8.0%
- KF (%) ([1]; storage 40° C./75% RH, Week 4): 7.9%

SMILES: Cc1nc(-c2cnc(NC(C)C)n(C)c2=O)ccc1Oc1ccnc(-c2cnn(C)c2)c1 [vimseltinib]
- Particle Size d10 [2, 4]: about 4 μm
- Particle Size d50 [2, 4]: about 8 μm
- Particle Size d90 [2, 4]: about 16 μm
- Particle Size d10 [2, 5]: 6-8 μm
- Particle Size d50 [2, 5]: 16-22 μm
- Particle Size d90 [2, 5]: 33-40 μm

SMILES: Cc1nc(-c2cnc(NC(C)C)n(C)c2=O)ccc1Oc1ccnc(-c2cnn(C)c2)c1.O.O [Seed batch]
- Particle Size d10 [2, 6]: 1.4 microns
- Particle Size d50 [2, 6]: 2.7 microns
- Particle Size d90 [2, 6]: 5.0 microns
- particle size d10 of seeds [2, 7]: about 1 μm
- particle size d50 of seeds [2, 7]: about 3 μm
- particle size d90 of seeds [2, 7]: about 5 μm

SMILES: Cc1nc(-c2cnc(NC(C)C)n(C)c2=O)ccc1Oc1ccnc(-c2cnn(C)c2)c1.O.O [Lot 1]
- Particle Size d10 [2, 8]: 2 microns
- Particle Size d50 [2, 8]: 5 microns
- Particle Size d90 [2, 8]: 13 microns
- D(10) [3]: 9 μm
- D(50) [3]: 29 μm
- D(90) [3]: 59 μm

SMILES: Cc1nc(-c2cnc(NC(C)C)n(C)c2=O)ccc1Oc1ccnc(-c2cnn(C)c2)c1.O.O [Crystalline dihydrate form of the compound represented by Fo] [listing 1 of 2 here]
- Particle Size d10 [2, 6]: 3.9 microns
- Particle Size d50 [2, 6]: 8.5 microns
- Particle Size d90 [2, 6]: 16.0 microns

SMILES: Cc1nc(-c2cnc(NC(C)C)n(C)c2=O)ccc1Oc1ccnc(-c2cnn(C)c2)c1.O.O [Dihydrate form of the compound represented by Formula (I) (h] [listing 2 of 2 here]
- KF (%) ([1]; storage 25° C./0% RH, Week 1): 7.7%
- XRPD ([1]; storage 25° C./0% RH, Week 1): Dihydrate
- KF (%) ([1]; storage 25° C./0% RH, Week 2): 7.6%
- XRPD ([1]; storage 25° C./0% RH, Week 2): Dihydrate
- KF (%) ([1]; storage 25° C./0% RH, Week 3): 7.2%
- XRPD ([1]; storage 25° C./0% RH, Week 3): Dihydrate
- KF (%) ([1]; storage 25° C./0% RH, Week 4): 5.8%
- KF (%) [1, 9]: 5.8%
- XRPD [1, 9]: partially converted to the crystalline anhydrous form
- KF (%) ([1]; storage 25° C./97% RH, Week 1): 7.7%
- XRPD ([1]; storage 25° C./97% RH, Week 1): Dihydrate
- KF (%) ([1]; storage 25° C./97% RH, Week 2): 7.7%
- XRPD ([1]; storage 25° C./97% RH, Week 2): Dihydrate
- KF (%) ([1]; storage 25° C./97% RH, Week 3): 7.4%
- XRPD ([1]; storage 25° C./97% RH, Week 3): Dihydrate
- KF (%) ([1]; storage 25° C./97% RH, Week 4): 7.7%
- XRPD ([1]; storage 25° C./97% RH, Week 4): Dihydrate
- XRPD ([1]; storage 25° C./97% RH, Week 4, listed as crystalline dihydrate form (having average crystal sizes of about 1 mm)): remained stable and unchanged
- KF (%) ([1]; storage 40° C./0% RH, Week 1): 0.8%
- KF (%) ([1]; storage 40° C./0% RH, Week 2): 0.3%
- KF (%) ([1]; storage 40° C./0% RH, Week 3): 0.1%
- XRPD ([1]; storage 40° C./0% RH, Week 3): Anhydrous
- KF (%) ([1]; storage 40° C./0% RH, Week 4): 0.2%
- KF (%) [1, 10]: 0.2%
- XRPD [1, 10]: partially converted to the crystalline anhydrous form
- KF (%) ([1]; storage 40° C./75% RH, Week 1): 7.7%
- XRPD ([1]; storage 40° C./75% RH, Week 1): Dihydrate
- KF (%) ([1]; storage 40° C./75% RH, Week 2): 7.6%
- XRPD ([1]; storage 40° C./75% RH, Week 2): Dihydrate
- KF (%) ([1]; storage 40° C./75% RH, Week 3): 7.7%
- XRPD ([1]; storage 40° C./75% RH, Week 3): Dihydrate
- KF (%) ([1]; storage 40° C./75% RH, Week 4): 7.7%
- XRPD ([1]; storage 40° C./75% RH, Week 4): Dihydrate
- XRPD ([1]; storage 40° C./75% RH, Week 4, listed as crystalline dihydrate form (having average crystal sizes of about 1 mm)): remained stable and unchanged

SMILES: Cc1nc(-c2cnc(NC(C)C)n(C)c2=O)ccc1Oc1ccnc(-c2cnn(C)c2)c1.O.O [Crystalline dihydrate form of the compound represented by Fo] [listing 2 of 2 here]
- Particle Size d10 [2, 6]: 3.6 microns
- Particle Size d50 [2, 6]: 8.4 microns
- Particle Size d90 [2, 6]: 16.2 microns
